Structures can show the parent of a compound that is named as a salt.
How the values were obtained:
[1] = test system: polyamine levels in Kelly neuroblastoma cells; assay: Polyamine analysis (HPLC of dansylated polyamines); type: cell-based; conditions: 500 μM inhibitor; for Kelly Treated Neuroblastoma Cells (Total Spm): Control = 2.57+0.47; for Kelly Treated Neuroblastoma Cells (Spd): Control = 8.52+1.63; for Kelly Treated Neuroblastoma Cells (Total Put): Control = 9.71+1.31; for Kelly Treated Neuroblastoma Cells (Total PA): Control = 20.81 +2.67; for polyamine levels relative to control (in words) / putrescine level (in words): Figure 6B
Description: Polyamines from Kelly neuroblastoma cells treated with 500 μM inhibitors were isolated, dansylated, and analyzed by HPLC. Briefly, polyamines were extracted and protonated in perchloric acid/sodium chloride buffer. To 100 μL of sample, 4.5 nmol of 1,7 diaminoheptane internal standard and 200 μL of 1 M sodium carbonate was added prior to dansylation with 400 μL of 5 mg/mL dansyl chloride (Sigma-Aldrich) for 60 min at 65 °C. One hundred μL of 1 M proline was then added to each reaction and incubated for 20 min at 65 °C. Polyamines were extracted from the mixture using methylene chloride. The methylene chloride was allowed to evaporate, the samples were resuspended in methanol and run through a C18 cleanup column. Samples were then analyzed using a Thermo Scientific/Dionex Ultimate 3000 HPLC, using a Syncronis C18 column (250 × 4.6 mm, […] pore size), and containing a fluorescence detector. The dansylated polyamine peaks were visualized by excitation at 340 nm and emission at 515 nm. The buffers used for elution of the polyamines were as follows: buffer A: 10 mM sodium heptanesulfonate/10% acetontrile at pH 3.4. Buffer B: 100% acetonitrile. The flow rate was 0.7 mL per minute. The column was equilibrated with 55% buffer B/45% buffer A prior to injection of the sample. Upon injection of the sample, elution of polyamines occurs in an isocratic solution of 55% buffer B/45% buffer A for 28 min. The solution was then slowly ramped to 95% buffer B/5% buffer A for 20 min. This gradient was held for 27 min to elute the spermine peak. The solution was then quickly dropped back to 55% buffer B/45% buffer A to re-equilibrate the column prior to the next sample being injected. Using the relative molar response derived from N-dansylated PA and 1,7 diaminoheptane standards, the amount of N-dansylated polyamines was calculated and normalized to total sample protein.

[2] = test system: Kelly neuroblastoma cells; assay: Sulforhodamine B (SRB) cytotoxicity assay, Kelly neuroblastoma cells; type: cell-based; conditions: for Cell cytotoxicity (72 hr @ 500 μM) Kelly Neuroblastoma: percent cytotoxicity; for cytotoxicity at 500 µM: Kelly, 72 hrs @500 µM, supplement csv, read-out: Kelly Neuroblasoma Cells (72 hrs @500 µM) %cytotoxicity
Description: Our strategy to identify novel ODC inhibitors was to first screen new analogs for ODC inhibition at 50 μM using our in vitro enzyme activity assay and purified human ODC (Table 1). Those showing significant inhibition were then titrated to provide an ODC IC50 followed by cell-based screening against both cancer (Kelly neuroblastoma) and noncancerous (neonatal fibroblasts) cell lines. For the cancer cell line, higher cytotoxicity was desired and for the noncancerous cell line counter screen, lower cytotoxicity was desired.
Normal primary human neonatal fibroblast cells (ATCC) were maintained in DMEM medium (Gibco) supplemented with 10% heat-inactivated fetal bovine serum (Hyclone), penicillin (100 IU/mL), and streptomycin (100 μg/mL), nonessential amino acids (0.1 mM) and sodium pyruvate (1 mM). Kelly neuroblastoma cells (Sigma-Aldrich) were maintained in RPMI medium (Corning) supplemented with 10% heat-inactivated fetal bovine serum (Hyclone), penicillin (100 IU/mL), and streptomycin (100 μg/mL). Cell lines were routinely monitored for mycoplasma contamination using the MycoAlert PLUS Mycoplasma Detection Kit (Lonza).
The colorimetric sulforhodamine B (SRB) assay was used to measure cytotoxicity following treatment with ODC inhibitors. Briefly, Kelly neuroblastoma cells and normal primary human neonatal fibroblast cells were plated in transparent flat 96-well plates and allowed to attach overnight. Cells were treated with control or 500 μM ODC inhibitor for 72 h. Cells were then fixed with 10% TCA at 4 °C for 1 h, washed with deionized water, and dried at room temperature. Cells were stained with 100 μL of 0.4% SRB in 1% acetic acid for 20 min at room temperature, rinsed five times with 1% acetic acid and allowed to dry at room temperature. One hundred μL of 10 mM Tris–HCl pH 7.0 was added to each well, shaken for 10 min at room temperature and absorbance was read at 540 nm. Absorbance values were normalized relative to control readings and converted to percentage by multiplying by one hundred. The percent cytotoxicity was then determined by subtracting the relative percentage of the ODC inhibitor treated readings from the control which is 100%.

| Structure (SMILES) | Kelly Treated Neuroblastoma Cells (Total Spm) [1] | Kelly Treated Neuroblastoma Cells (Spd) [1] | Kelly Treated Neuroblastoma Cells (Total Put) [1] | Kelly Treated Neuroblastoma Cells (Total PA) [1] | polyamine levels relative to control (in words) ([1]; Kelly neuroblastoma cells) | putrescine level (in words) ([1]; Kelly neuroblastoma cells) | activity against Kelly neuroblastoma cells (in words) ([2]; 72 h, 500 μM) | Cell cytotoxicity (72 hr @ 500 μM) Kelly Neuroblastoma ([2]; 500 μM) [%] | cytotoxicity at 500 µM [2] [%] | spermidine and spermine levels (in words) ([1]; Kelly neuroblastoma cells, relative to APA) |
| --- | --- | --- | --- | --- | --- | --- | --- | --- | --- | --- |
| NCCCON [APA, 3-(Aminooxy)propan-1-Amine Dihydrochloride] | 5.09+1.39 | 7.14+6.27 | 0 | 12.2+7.59 | reduced polyamine levels | undetected | greater anticancer activity | 77±21 | 77 |  |
| Cl.Cl.NOCC1(F)CCNC1 (stereo not drawn) [Compound 11, 3-[(aminooxy)methyl]-3-fluoropyrrolidine di-formic acid] | 2.74+0.46 | 1.81+0.73 | 0 | 4.55+1.14 | reduced polyamine levels | undetected |  | 46±9 | 46 | greatest reductions |

From article PMC11912471 (Journal of Medicinal Chemistry, 2025)
